Results reported in article PMC11762167, “G Protein-Coupled Receptor 17 Inhibits Glucagon-like Peptide-1 Secretion via a Gi/o-Dependent Mechanism in Enteroendocrine Cells” (Biomolecules, 2024).

How the values were obtained:
[1] = tested on: HEK293 cells; assay: GloSensor cAMP in HEK293 cells transfected with empty vector (EV); assay type: cell-based; settings: 100 μM MDL29,951, 3 µM forskolin
Method: (§1) HEK293 cells were maintained and transfected as previously described.
(§2) Live-cell, real-time cAMP measurements were performed using Promega (Madison, WI, USA) GloSensor cAMP luminescent biosensor technology. Glosensor cAMP experiments were conducted as previously described in GLUTag cells and HEK293 cells.

[2] = biological target: T1, hGPR17S (Homo sapiens, UniProt Q13304); assay: GloSensor cAMP in HEK293 cells transfected with hGPR17S; assay type: cell-based
T1 construct: host or cells: HEK293 cells (ATCC CRL-1573), transient transfection
Method: as §1, §2

[3] = tested on: GLUTag cells; assay: Calcium flux (Calcium 6) in control-transduced GLUTag cells; assay type: cell-based, murine; design: Mean Diff.: unit not given here; settings: for Mean Diff.: Figure 1B, Ctl
Method: (§3) GLUTag cells were maintained in Dulbecco’s Modified Eagle Medium (DMEM) supplemented with 10% fetal bovine serum and 1% penicillin–streptomycin in a humidified incubator at 37 °C and 5% CO2. For adenovirus transduction, GLUTag cells were seeded into poly-D-lysine coated 96-well plates or 4-chamber slides. The next day, cells were transduced with adenoviruses (100–1250 viral particles per cell at time of seeding) as indicated. After 24–30 h, adenovirus-containing media was changed to serum-free growth media for overnight serum starvation. The following day, GLUTag cells were used for cAMP or calcium signaling assays, GLP-1 secretion assays, or immunostaining and imaging.
GLUTag cells were seeded into black, clear bottom, poly-D-lysine-coated 96-well plates. Cells were transduced and serum starved as specified above. Growth medium was then replaced with 100 μL/well assay buffer (HBSS, 20 mM HEPES, pH 7.4) and 100 μL/well Calcium 6 loading dye (R8190; Molecular Devices, San Jose, CA, USA). During dye loading, cells were incubated at 37 °C and 5% CO2 for 2 h. MDL29,951 or KCl was added to the wells and fluorescence (485 nm excitation, 525 nm emission, and 515 nm automatic emission cutoff) was measured using a Molecular Devices FlexStation3 (Molecular Devices) at 37 °C. For experiments with PTX, cells were pretreated with 100 ng/mL PTX overnight and 100 ng/mL PTX was included with Calcium 6 loading dye for calcium flux assays. For experiments with YM-254890, cells were pretreated for 30 min at 37 °C.

[4] = biological target: hGPR17L (Homo sapiens, UniProt Q13304); assay: Endpoint cAMP (HTRF) in GLUTag cells expressing hGPR17L; assay type: cell-based; design: host or cells: GLUTag cells (murine enteroendocrine line), adenoviral transduction; settings: for Predicted (LS) mean diff.: Fig 2B, Forskolin
Method: as §3
Endpoint cAMP measurements were conducted as follows. GLUTag cells were seeded into poly-D-lysine-coated 96-well plates and transduced with adenovirus as specified above and then tested for cAMP signaling. Medium was removed and cells were washed with cAMP stimulation buffer (Hanks’ balanced salt solution (HBSS), 20 mM HEPES, pH 7.4) and then incubated in cAMP stimulation buffer for 30 min at 37 °C and 5% CO2. Cells were then treated for 30 min with agonist and forskolin in the presence of 500 µM IBMX at 37 °C and 5% CO2. Stimulation buffer was then decanted, and cAMP lysis buffer (50 mM HEPES, 10 mM CaCl2, 0.35% Triton X-100, and 500 µM IBMX) was added and shaken at 700 rpm for 1 h. Lysate was transferred to a 384-well plate, and the cAMP levels were quantified using the Cisbio HTRF cAMP (Gi kit; Revvity, Waltham, MA, USA) according to the manufacturer’s protocol.

[5] = 10 µM forskolin, GLUTag hGPR17L

T1 sequence (Q13304 29-367): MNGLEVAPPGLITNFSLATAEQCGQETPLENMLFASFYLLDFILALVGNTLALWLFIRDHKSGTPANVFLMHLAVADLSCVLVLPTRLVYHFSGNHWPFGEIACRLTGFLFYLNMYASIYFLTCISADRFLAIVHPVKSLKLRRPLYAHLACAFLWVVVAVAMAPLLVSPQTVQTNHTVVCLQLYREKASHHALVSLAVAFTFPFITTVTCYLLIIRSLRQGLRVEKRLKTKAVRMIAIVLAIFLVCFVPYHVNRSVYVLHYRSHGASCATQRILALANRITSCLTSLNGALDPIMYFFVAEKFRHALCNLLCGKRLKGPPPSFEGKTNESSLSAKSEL
Sequence of hGPR17L (Q13304 whole entry): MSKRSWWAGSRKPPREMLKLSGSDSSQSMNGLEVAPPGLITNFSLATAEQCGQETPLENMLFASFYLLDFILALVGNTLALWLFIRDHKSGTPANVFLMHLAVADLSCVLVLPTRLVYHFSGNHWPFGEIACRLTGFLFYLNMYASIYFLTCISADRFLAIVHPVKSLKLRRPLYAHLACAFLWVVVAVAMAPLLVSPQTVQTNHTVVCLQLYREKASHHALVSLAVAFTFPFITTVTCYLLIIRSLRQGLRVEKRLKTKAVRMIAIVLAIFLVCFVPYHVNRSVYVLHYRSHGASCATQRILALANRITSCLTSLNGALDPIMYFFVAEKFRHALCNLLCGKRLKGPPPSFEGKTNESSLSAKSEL

O=C(O)CCc1c(C(=O)O)[nH]c2cc(Cl)cc(Cl)c12 [MDL29,951]
cAMP Effect of 100 μM MDL (% Inhibition) [1]: 7.5±3.2%
cAMP Maximum Inhibition (% Inhibition) ([2]; 3 µM forskolin): 48±2.2%
cAMP Potency (pEC50) (reversal of inhibition) ([2]; 3 µM forskolin): 5.45±0.07
cAMP Potency (pIC50) ([2]; 3 µM forskolin): 8.83±0.09
EC50 ([2]; 3 µM forskolin, read-out: cAMP Potency EC50 (reversal of inhibition)): 3.6 µM
IC50 ([2]; 3 µM forskolin-stimulated GloSensor cAMP, read-out: cAMP Potency IC50): 0.0015 µM
cAMP Effect of 100 μM MDL (% Inhibition) ([2]; 100 μM MDL29,951, 3 µM forskolin): 13±3.7%
peak ΔF/F, calcium flux ([3]; 30 µM MDL29,951, control-transduced cells): 0.01 ± 0.01
Mean Diff. ([3]; log [MDL29,951] (M) -4.5 vs. Vehicle): -0.01567
Mean Diff. ([3]; log [MDL29,951] (M) -5.0 vs. Vehicle): -0.01433
Mean Diff. ([3]; log [MDL29,951] (M) -5.5 vs. Vehicle): -0.0003333
Mean Diff. ([3]; log [MDL29,951] (M) -6.0 vs. Vehicle): 0.0006667
Mean Diff. ([3]; log [MDL29,951] (M) -6.4 vs. Vehicle): 0.01533
Mean Diff. ([3]; log [MDL29,951] (M) -6.9 vs. Vehicle): 0.002
Mean Diff. ([3]; log [MDL29,951] (M) -7.4 vs. Vehicle): 0.002667
Mean Diff. ([3]; log [MDL29,951] (M) -7.9 vs. Vehicle): 0.004333
Mean Diff. ([3]; log [MDL29,951] (M) -8.3 vs. Vehicle): -0.001667
Mean Diff. ([3]; log [MDL29,951] (M) -8.8 vs. Vehicle): -0.0003333
effect on forskolin-stimulated cAMP upon treatment with Gq inhibitor YM-254890 ([4]; 100 nM YM-254890, 10 µM forskolin): inhibited
inhibition of forskolin-stimulated cAMP in the presence of PTX ([4]; 100 ng/mL PTX, 10 µM forskolin): unable to inhibit
IC50 ([4]; 10 µM forskolin, 500 µM IBMX, GLUTag hGPR17L, read-out: IC50, inhibition of forskolin-stimulated cAMP): 0.029 µM
pEC50, reversal of inhibition of forskolin-stimulated cAMP [4, 5]: 4.94 ± 0.09
pIC50, inhibition of forskolin-stimulated cAMP [4, 5]: 7.54 ± 0.11
EC50 ([4]; 10 µM forskolin, GLUTag hGPR17L, read-out: EC50, reversal of inhibition of forskolin-stimulated cAMP at higher concentrations): 12 µM
Predicted (LS) mean diff. ([4]; log [MDL29,951] (M) -4.0 vs. Vehicle, +100 nM YM-254890): -29.51
Predicted (LS) mean diff. ([4]; log [MDL29,951] (M) -4.0 vs. Vehicle, +100 ng/mL PTX): 28.26
Predicted (LS) mean diff. ([4]; log [MDL29,951] (M) -4.0 vs. Vehicle, +Vehicle): -12.1
Predicted (LS) mean diff. ([4]; log [MDL29,951] (M) -4.6 vs. Vehicle, +100 nM YM-254890): -35.09
Predicted (LS) mean diff. ([4]; log [MDL29,951] (M) -4.6 vs. Vehicle, +100 ng/mL PTX): 20.2
Predicted (LS) mean diff. ([4]; log [MDL29,951] (M) -4.6 vs. Vehicle, +Vehicle): -15.6
Predicted (LS) mean diff. ([4]; log [MDL29,951] (M) -5.2 vs. Vehicle, +100 nM YM-254890): -39.39
Predicted (LS) mean diff. ([4]; log [MDL29,951] (M) -5.2 vs. Vehicle, +100 ng/mL PTX): 8.85
Predicted (LS) mean diff. ([4]; log [MDL29,951] (M) -5.2 vs. Vehicle, +Vehicle): -22.36
Predicted (LS) mean diff. ([4]; log [MDL29,951] (M) -5.8 vs. Vehicle, +100 nM YM-254890): -44.26
Predicted (LS) mean diff. ([4]; log [MDL29,951] (M) -5.8 vs. Vehicle, +100 ng/mL PTX): -1.585
Predicted (LS) mean diff. ([4]; log [MDL29,951] (M) -5.8 vs. Vehicle, +Vehicle): -32.92
Predicted (LS) mean diff. ([4]; log [MDL29,951] (M) -6.4 vs. Vehicle, +100 nM YM-254890): -39.29
Predicted (LS) mean diff. ([4]; log [MDL29,951] (M) -6.4 vs. Vehicle, +100 ng/mL PTX): -7.715
Predicted (LS) mean diff. ([4]; log [MDL29,951] (M) -6.4 vs. Vehicle, +Vehicle): -33.45
Predicted (LS) mean diff. ([4]; log [MDL29,951] (M) -7.0 vs. Vehicle, +100 nM YM-254890): -30.32
Predicted (LS) mean diff. ([4]; log [MDL29,951] (M) -7.0 vs. Vehicle, +100 ng/mL PTX): -2.207
